The source of these data is patent US5340823A, “Organosilane derivatives, pharmaceutical compositions containing them and process for preparing same” (Richter Gedeon Vegyeszeti Gyar RT., priority 1990, dated 1994).

Like-named read-outs stand apart in the source and are kept apart here.

Data set [1] deals with GYKI-20039-induced tremor. Nature of the data set: GYKI-20039-induced tremor test on mice. The class given is in vivo, mice (male CFLP). The note with it: for ED50: Mus musculus. On the procedure:
After administration of the test substance the mice were suspended on an isometric dynamometer in a light plastic box and the strength of the tremor was measured and quantified by electronic integration. The tremor strength of mice was averaged in the 4th-5th minutes following the treatment with 10 the test substance.
The animals were pretreated with various doses of the muscle relaxants to be tested before administration of the test substance. The time of pretreatment was 0 in intravenous examinations, whereas a pretreatment time of 10 minutes was used in oral investigations.
(§1) For the verification of the oral activity the tremor test was used on mice whereas the flexor reflex was investigated by using intraduodenal (i.d.) administration.

For data set [2], the system named is GYKI-20039-induced tremor. The following applies: mice; literature (Coward et al.; Andrasi et al.); cited from earlier work.
Data set [3] is described as follows: Acute toxicity and therapeutic ratio on mice. The class given is in vivo. The note with it: mouse, in vivo; for selectivity ratio: mice, LD50 to tremor ED50. The protocol: (§2) Method 4: Study on the acute toxicity
(§3) These experiments were carried out on groups consisting of 10 male and 10 female mice each weighing 19 to 21 g. For the determination of the intravenous toxicity the substances to be tested were dissolved in 10 ml/kg of body-weight of physiological saline and injected to the tail vein of CFLP mice during 1 minute. For evaluation of the oral toxicity the substances to be tested were dissolved in 10 ml/kg of body-weight of physiological saline and introduced to the stomach of OF-1 mice by using a rigid gastric tube. The perishing ratio of the animals was evaluated by 48 hours following the administration of the substance to be tested. The LD50 value, i.e. the dose causing the death of 50% of the animals was calculated by using the method of Litchfield and Wilcoxon. The therapeutic (safety) ratio was determined as the ratio of the LD50 value to ED50 value shown in the GYKI-20039-induced tremor test.

A further data set relates to Straub's tail. Nature of the data set: Straub's tail test (morphine hydrochloride) on mice. The class given is in vivo, mice (male OF-1). The note with it: for ED50: Mus musculus, ip, read-out: Straub's tail ED50 i.p. The protocol: Method 2: Straub's tail test
The method of Novack [Drug Development Res. 2, 383 (1982)] was used with some modification. Groups consisting of 10 male OF-1 mice each weighing 19 to 21 g were intraperitoneally treated with 60 mg/kg of morphine hydrochloride. The formation (development) of Straub's stail was judged by 15 minutes after the morphine treatment. It was considered to be positive when the animal permanently kept his tail upwards in an angle being steeper than 45°. A pretreatment was carried out with various doses of the compound to be tested by 20 minutes before the time of reading. The ED50 value, i.e. the dose inhibiting the positive response in 50% of the animals, was calculated by using the method of Litchfield and Wilcoxon.
(The above author found a good correlation between the effectivity shown in this test method and the clinical effect of central muscle relaxants.)

The subject of another data set is flexor reflex. Nature of the data set: Flexor reflex on anaesthetized cats. The class given is in vivo. The protocol: Method 3: Flexor reflex on anaesthetized cats
Chloralose-anaesthetized cats of both sexes weighing 2.2 to 5.4 kg each were used in these experiments. The flexor reflex of the animals was assessed by using the quantitative electromyographic method of Farkas et al. [Pharmacol. Res. Comm. 20, Suppl. 1, 141 (1988)].
[…] For characterization of duration of the effect the time (T75%) is shown, which passed after administration of this dose up to the return to 75% of the control value.
as §1

The test system of another data set is mice. Nature of the data set: Acute toxicity and therapeutic ratio on mice. The class given is in vivo. The following applies: mice, i.v. and oral. The protocol:
as §2, §3

Setting [4] is: iv, CFLP mice, i.v., read-out: Acute toxicity LD50 i.v.
Where [5] appears, read: iv, i.v., read-out: Therapeutic ratio LD50/ED50 i.v.
The mark [6] stands for this setting: po, OF-1 mice, p.o., read-out: Acute toxicity LD50 p.o.
[7] abbreviates: po, p.o., read-out: Therapeutic ratio LD50/ED50 p.o.
Where [8] appears, read: mice, i.p., 60 mg/kg morphine hydrochloride, Table 1.
Setting [9] is: 10 mg/kg i.v., time up to return to 75% of control.
The mark [10] stands for this setting: iv, Table 3, read-out: Muscle relaxant effect, Tremor ED50 i.v.
The mark [11] stands for this setting: iv, pretreatment time 0, Table 1, read-out: GYKI-20039 (tremor) ED50 i.v.
Where [12] appears, read: po, Table 3, read-out: Muscle relaxant effect, Tremor ED50 p.o.
[13] abbreviates: po, pretreatment 10 minutes, Table 2, read-out: Tremor test ED50 p.o.

Regarding `N=C1SCCN1c1c(Cl)cccc1Cl` [GYKI-20039, reference compound], the induction of tremor entry in data set [1] is “induces a tremor on mice”.

Turning to `Cl.N=C(Cc1c(Cl)cccc1Cl)NC(N)=O` [LON-954], the induction of tremor entry in data set [2] is given as “induces a tremor on mice”.

For the molecule `CCc1ccc(C(=O)C(C)CN2CCCCC2)cc1` (centres unmarked) [Eperisone, eperisone, reference compound], the results for the LD50 at 48 h in data set [3] (setting [4]) and in data set [3] (setting [6]) were 53.4 mg/kg and 320 mg/kg, respectively. Moreover, the selectivity ratio in data set [3] (setting [5]) was determined as 6.8; in data set [3] (setting [7]), 2.5. In addition, the ED50 worked out at 63.6 mg/kg with Straub's tail (setting [8]); 7.8 mg/kg in data set [1] (setting [10]); 7.8 mg/kg in data set [1] (setting [11]); 126 mg/kg in data set [1] (setting [12]); 126 mg/kg in data set [1] (setting [13]). The “Flexor reflex, duration of effect T75%” value in the data set on flexor reflex (setting [9]) stood at 90 min. For the same molecule, the entries for the “Flexor reflex, T75%” value in the data set with flexor reflex (25 mg/kg i.d.) and in the data set with flexor reflex (50 mg/kg i.d.) were 60 min and 190 min, respectively. Also, the “Flexor reflex, maximum inhibition” value is 38.5% in the data set on flexor reflex (25 mg/kg i.d.) and 74.8% in the data set with flexor reflex (50 mg/kg i.d.).

On to `Cc1ccc(C[Si](C)(C)N2CCCCC2)c(C)c1.Cl` [Example 34], for which the “Straub's tail ED50 i.p.” value in the data set with Straub's tail (setting [8]) is listed as 30.7 mg/kg. In addition, in the data set on flexor reflex (i.v., 5 mg/kg (footnote *)), the “Flexor reflex, duration of effect T75%” value stood at 120 min and the “inhibition of flexor reflex” value was determined as 53%. Moreover, the “GYKI-20039 (tremor) ED50 i.v.” value in data set [1] (i.v., pretreatment time 0, Table 1) is 8.7 mg/kg.

For `Cc1ccc(Cl)c(C[Si](C)(C)CN2CCCCC2)c1.Cl` [Example 35, N-{[(2-chloro-5-methylbenzyl)-dimethylsilyl]methyl}piperidine hydrochlorid], the ED50 in the data set on Straub's tail worked out at 25.9 mg/kg; in data set [1] (setting [11]), 3.7 mg/kg. Moreover, the “Flexor reflex, duration of effect T75%” value in the data set with flexor reflex (setting [9]) is on record as above 180 min.

Turning to `C[Si](C)(CCCN1CCCC1)Cc1ccc(F)cc1.Cl` [Example 11, N-{[dimethyl-(4-fluorobenzyl)silyl]propyl}pyrrolidine hydrochloride], the figures for the ED50 (in the data set with Straub's tail; in data set [1] (setting [11])) were 27.5 mg/kg and 3.8 mg/kg, respectively. Moreover, the “Flexor reflex, duration of effect T75%” value with flexor reflex (setting [9]) was above 180 min.

Take `Cc1ccc(C(=O)C(C)CN2CCCCC2)cc1` (centres unmarked) [Tolperisone, tolperisone, reference compound]: the figures for the LD50 at 48 h in data set [3] (setting [4]) and in data set [3] (setting [6]) were 39.8 mg/kg and 612 mg/kg, respectively. Also, the selectivity ratio in data set [3] (setting [5]) is 3.9; in data set [3] (setting [7]) it was 1.8. In addition, the ED50 in the data set with Straub's tail (setting [8]) was found to be 63 mg/kg; in data set [1] (setting [10]), 10.1 mg/kg; in data set [1] (setting [12]), 338 mg/kg; in data set [1] (setting [13]), 338 mg/kg. The “Flexor reflex, duration of effect T75%” value with flexor reflex (setting [9]) came out at 50 min. The figures for the “Flexor reflex, T75%” value in the data set on flexor reflex (25 mg/kg i.d.) and with flexor reflex (50 mg/kg i.d.) were 60 min and 140 min, respectively. Also, the entries for the “Flexor reflex, maximum inhibition” value in the data set with flexor reflex (25 mg/kg i.d.) and in the data set with flexor reflex (50 mg/kg i.d.) were 33.1% and 76.6%, respectively.

`C[Si](C)(CCCn1ccnc1)Cc1ccc(F)cc1.Cl` [Example 12, N-{[dimethyl-(4-fluorobenzyl)silyl]propyl}imidazole hydrochloride]: the ED50 was found to be 26.9 mg/kg in the data set with Straub's tail and 5.4 mg/kg in data set [1] (setting [11]). Besides, the “inhibition of flexor reflex” value in the data set on flexor reflex (10 mg/kg i.v.) was 40%. Further, in the data set on flexor reflex (setting [9]), the “Flexor reflex, duration of effect T75%” value is given as above 180 min.

Regarding `C[Si](C)(CCCN1CCCCC1)Cc1ccccc1.Cl` [Example 19, N -[(benzyldimethylsilyl)propyl]piperidine hydrochloride], the ED50 was 22.3 mg/kg in the data set with Straub's tail and 3.6 mg/kg in data set [1] (setting [11]). The “Flexor reflex, duration of effect T75%” value in the data set with flexor reflex (setting [9]) was above 180 min.

Consider `C[Si](C)(Cc1ccc(F)cc1)CN1CCCC1.Cl` [Example 10, N-{[dimethyl-(4-fluorobenzyl)silyl]methyl}-pyrrolidine hydrochloride], for which the ED50 in the data set on Straub's tail came to 22 mg/kg; in data set [1] (setting [11]), 2.8 mg/kg. In addition, the “Flexor reflex, duration of effect T75%” value in the data set on flexor reflex (setting [9]) is recorded as above 180 min.

Turning to `C[Si](C)(Cc1ccc(F)cc1)CN1CCCCC1.Cl` [Example 2, N-{[dimethyl-(4-fluorobenzyl)silyl]methyl}piperidine hydrochloride], in the data set with mice, the “therapeutic ratio in comparison to the reference drugs” value is recorded as “significantly more advantageous”. For the same molecule, the LD50 at 48 h in data set [3] (setting [4]) amounted to 25.5 mg/kg; in data set [3] (setting [6]), 228 mg/kg. Further, the values for the selectivity ratio in data set [3] (setting [5]) and in data set [3] (setting [7]) were 9.1 and 8.3, respectively. The median effective dose (ED50) turned out to be 21.8 mg/kg in the data set with Straub's tail; 2.8 mg/kg in data set [1] (setting [10]); 2.8 mg/kg in data set [1] (setting [11]); 27.6 mg/kg in data set [1] (setting [12]); 27.6 mg/kg in data set [1] (setting [13]). Further, in the data set on flexor reflex (setting [9]), the “Flexor reflex, duration of effect T75%” value is listed as above 180 min. The “Flexor reflex, T75%” value with flexor reflex (12.5 mg/kg i.d.) was 230 min; in the data set on flexor reflex (25 mg/kg i.d.), above 300 min. Moreover, the entries for the “Flexor reflex, maximum inhibition” value with flexor reflex (12.5 mg/kg i.d.) and with flexor reflex (25 mg/kg i.d.) were 44.8% and 82.1%, respectively. In addition, in the data set with flexor reflex (i.d.), the “duration of effect compared with 4-fold doses of the reference drugs” value was “exceeded even the duration of effect of 4-fold doses of the reference drugs”. In the data set with flexor reflex (i.d., vs tolperisone and eperisone), the “dose needed to achieve a given effect relative to the dose of the reference drugs” value is “half of the dose”. Moreover, the “activity relative to eperisone” value in data set [1] (oral route) amounted to 5 times. Further, the “activity relative to tolperisone” value in data set [1] (oral route) was determined as 10 times.

For orientation: LD50 means the dose expected to kill half of the subjects tested. For orientation: ED50 means the dose that gives a 50% effect, or the effect in half of the subjects.
